# From patent US20090062206A1 (UNIVERSITY OF SOUTH FLORIDA, priority 2006, published 2009)
# Like-named read-outs stand apart in the source and are kept apart here.
# How the values were obtained:
# [1] = test system: human renal-cell carcinoma cells (ATCC CRL-2175); test: Decrease in number of human renal-cell carcinoma cells (cell counting on coverslips); format: cell-based; settings: for number of renal carcinoma cells remaining per high powered field: control 89±7 cells
# Procedure: A cell line (ATCC number CRL-2175) of human renal-cell carcinoma cells were purchased from American Type Culture Collection (ATCC, Manassas, Va.). This renal cancer cell line was established by A. Leibovitz in 1972 from a renal-cell carcinoma removed from a person with blood type O, Rh+.
# Propagation of these renal cancer cells was in Leibovitz's L-15 medium supplemented with 10% fetal bovine serum (Atlanta Biologicals, Lawrenceville, Ga.) at a temperature of 37° C. in a CO2 free environment as recommended by the ATCC. Cells were dispensed in new flasks with subculturing two to three times per week.
# After the renal-cell carcinoma cells were subcultured for 24 hours they were then seeded to coverslips in 24-well plates (Nunclon™, Roskilde, Denmark) with 1 mL of the above media. There were 65,000 cells seeded to each coverslip. After 24 hours, the well plates were washed twice with phosphate-buffered saline to remove the fetal bovine serum. Removal of serum was carried out to completely remove all variables (EGF, etc.) present in serum in order that interpretation of any data obtained would be straightforward. After 24 hours of serum deprivation, media volume was reduced to 250 μL per well with, or without, the respective peptide hormones in dose-response curves with concentrations up to and including 100 μM (1% of this volume). Human renal carcinoma cells were then incubated for various periods of time [24, 48, 72, and 96 hours]. The number of renal carcinoma cells were then counted with a cell counter (Thomas Scientific Swedesboro, N. J.) evaluating ten fields of the microscope slide at x40 along the X-axis with an Olympus BH-2 microscope (Atlanta, Ga.). This evaluation was repeated on six separate occasions with the number of renal carcinoma cells reflecting 60 observations for each group, i.e., 60 observations for controls and 60 observations for each of the six groups with respective peptide hormones. The peptide hormones used in this investigation were from Phoenix Pharmaceuticals, Inc., Belmont, Calif. In the Results section, the number of cancer cells reported is the number of cells in each individual field. Ten fields were examined on each microscope slide. The results of the ten fields were pooled and the average of the ten fields is illustrated in the Results section.
# The number of renal carcinoma cells after 24 hours without the addition of any of the peptide hormones averaged 89±7 cells per high powered field when ten fields of the coverslip were evaluated at ×40 along the X-axis with an Olympus BH2 microscope. This evaluation was repeated on six separate occasions, with the above number reflecting 60 observations by two independent investigators of the control group and each of the five groups with the addition of one of the peptide hormones. The same number of observations were done in a seventh group where four of the peptides were added together (each at 1 μM) to determine if they may have an additive effect.
# [2] = human or animal subjects; cited from earlier work
# [3] = test system: human renal carcinoma cells; test: DNA synthesis by bromodeoxyuridine (BrdU) incorporation into renal carcinoma cells; format: cell-based; settings: 1 μM, incubated 24 hours
# Source text: To investigate whether these peptide hormones were inhibiting DNA synthesis, bromodeoxyuridine (BrdU) incorporation into the renal carcinoma cells was utilized as previously described from our laboratory. BrdU was from BD Bioscience, San Jose, Calif.
# [4] = test system: small-cell lung cancer cells; settings: 1 μM; cited from earlier work
# prostate adenocarcinoma = settings: 1 μM; cited from earlier work
# NPR-A receptor = NPR-A receptor (Homo sapiens, UniProt P16066); settings: cited from earlier work
# NPR-C receptor = NPR-C receptor (Homo sapiens, UniProt P17342); settings: cited from earlier work
# [5] = 1 μM, at 48 hours after 24 hour exposure
# [6] = 1 μM, at 72 hours after 24 hour exposure
# [7] = 1 μM, at 96 hours after 24 hour exposure
# [8] = 10 μM, at 48 hours after 24 hour exposure
# [9] = 10 μM, at 72 hours after 24 hour exposure
# [10] = 10 μM, at 96 hours after 24 hour exposure
# [11] = 100 μM, at 48 hours after 24 hour exposure
# [12] = 100 μM, at 72 hours after 24 hour exposure
# [13] = 100 μM, at 96 hours after 24 hour exposure
# Sequence of NPR-A receptor (P16066 33-1061): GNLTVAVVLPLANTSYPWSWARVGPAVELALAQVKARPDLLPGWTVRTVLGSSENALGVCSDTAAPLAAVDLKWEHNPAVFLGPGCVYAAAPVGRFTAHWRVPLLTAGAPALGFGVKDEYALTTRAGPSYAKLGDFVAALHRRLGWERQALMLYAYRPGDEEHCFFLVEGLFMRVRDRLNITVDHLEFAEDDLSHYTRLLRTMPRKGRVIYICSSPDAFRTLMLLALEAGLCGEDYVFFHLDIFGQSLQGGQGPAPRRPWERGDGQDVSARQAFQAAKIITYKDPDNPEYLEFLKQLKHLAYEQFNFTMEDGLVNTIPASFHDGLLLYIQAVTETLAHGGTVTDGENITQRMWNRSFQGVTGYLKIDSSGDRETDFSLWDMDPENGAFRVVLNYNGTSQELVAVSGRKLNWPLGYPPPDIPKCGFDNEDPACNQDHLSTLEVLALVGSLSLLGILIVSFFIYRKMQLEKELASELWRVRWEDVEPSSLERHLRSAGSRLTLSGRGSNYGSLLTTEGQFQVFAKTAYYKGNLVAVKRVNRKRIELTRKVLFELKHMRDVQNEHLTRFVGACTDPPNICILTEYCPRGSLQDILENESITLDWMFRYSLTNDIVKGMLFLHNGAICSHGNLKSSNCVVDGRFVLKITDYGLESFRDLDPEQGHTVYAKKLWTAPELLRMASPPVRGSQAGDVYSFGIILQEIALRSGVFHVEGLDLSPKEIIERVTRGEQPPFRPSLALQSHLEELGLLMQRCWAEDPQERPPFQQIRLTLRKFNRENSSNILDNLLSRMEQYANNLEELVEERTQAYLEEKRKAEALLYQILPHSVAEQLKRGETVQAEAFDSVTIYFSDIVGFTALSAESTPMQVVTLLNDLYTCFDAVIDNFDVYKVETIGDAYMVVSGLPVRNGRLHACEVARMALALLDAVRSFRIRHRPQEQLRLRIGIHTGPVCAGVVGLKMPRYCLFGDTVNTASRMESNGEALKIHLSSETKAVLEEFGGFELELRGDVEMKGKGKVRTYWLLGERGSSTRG
# Sequence of NPR-C receptor (P17342 27-541): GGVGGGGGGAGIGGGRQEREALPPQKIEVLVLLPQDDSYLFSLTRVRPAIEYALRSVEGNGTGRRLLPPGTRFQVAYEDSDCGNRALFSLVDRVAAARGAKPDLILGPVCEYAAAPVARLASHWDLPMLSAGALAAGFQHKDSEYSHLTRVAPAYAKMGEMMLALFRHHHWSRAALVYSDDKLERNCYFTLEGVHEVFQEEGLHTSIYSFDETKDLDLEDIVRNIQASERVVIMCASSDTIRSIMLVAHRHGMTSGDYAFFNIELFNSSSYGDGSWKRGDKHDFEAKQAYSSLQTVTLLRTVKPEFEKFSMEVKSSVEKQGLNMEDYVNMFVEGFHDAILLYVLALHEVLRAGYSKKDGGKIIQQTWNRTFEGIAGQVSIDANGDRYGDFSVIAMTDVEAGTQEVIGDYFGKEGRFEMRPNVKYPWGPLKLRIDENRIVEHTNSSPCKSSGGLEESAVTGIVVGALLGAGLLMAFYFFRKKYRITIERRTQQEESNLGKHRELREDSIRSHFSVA
compound,measurement,setting,value
"LANP: long acting natriuretic peptide, peptide hormone within the 126 amino acid ANP prohormone (NPMYNAVSNADLMDFKNLLDHLEEKMPLED; Long-acting natriuretic peptide; UniProt P01160 26-55, looked up)",decrease in number of renal carcinoma cells,[1]; [5],30%
same,decrease in number of renal carcinoma cells,[1]; [6],30%
same,decrease in number of renal carcinoma cells,[1]; [7],24%
same,decrease in number of renal carcinoma cells,"[1]; 10 μM, 24 hours",55%
same,decrease in number of renal carcinoma cells,[1]; [8],50%
same,decrease in number of renal carcinoma cells,[1]; [9],47%
same,decrease in number of renal carcinoma cells,[1]; [10],39%
same,decrease in number of renal carcinoma cells,"[1]; 100 μM, 24 hours",70%
same,number of renal carcinoma cells remaining per high powered field,"[1]; 100 μM, 24 hours",26±2 cells
same,decrease in number of renal carcinoma cells,[1]; [11],70%
same,decrease in number of renal carcinoma cells,[1]; [12],70%
same,decrease in number of renal carcinoma cells,[1]; [13],61%
same,side effect hypotension,[2],never
same,inhibition of DNA synthesis,[3],70%
"kaliuretic peptide: peptide hormone within the 126 amino acid ANP prohormone synthesized in the heart (SSDRSALLKSKLRALLTAPR; Kaliuretic peptide; UniProt P01160 104-123, looked up)",decrease in number of renal carcinoma cells,"[1]; 1 μM, 24 hours",39%
same,decrease in number of renal carcinoma cells,[1]; [5],35%
same,decrease in number of renal carcinoma cells,[1]; [6],31%
same,decrease in number of renal carcinoma cells,[1]; [7],25%
same,decrease in number of renal carcinoma cells,"[1]; 10 μM, 24 hours",54%
same,decrease in number of renal carcinoma cells,[1]; [8],52%
same,decrease in number of renal carcinoma cells,[1]; [9],47%
same,decrease in number of renal carcinoma cells,[1]; [10],40%
same,decrease in number of renal carcinoma cells,"[1]; 100 μM, 24 hours",74%
same,number of renal carcinoma cells remaining per high powered field,"[1]; 100 μM, 24 hours",23±3 cells
same,decrease in number of renal carcinoma cells,[1]; [11],76%
same,decrease in number of renal carcinoma cells,[1]; [12],71%
same,decrease in number of renal carcinoma cells,[1]; [13],64%
same,decrease in cancer cell number,[4],30%
same,side effect hypotension,[2],never
same,inhibition of DNA synthesis,[3],74%
same,decrease in cancer cell number,prostate adenocarcinoma,30%
CC[C@H](C)[C@@H]1NC(=O)[C@H](CCCNC(=N)N)NC(=O)[C@H](CC(=O)O)NC(=O)[C@H](CCSC)NC(=O)[C@H](CCCNC(=N)N)NC(=O)CNC(=O)CNC(=O)[C@H](Cc2ccccc2)NC(=O)[C@@H](NC(=O)[C@H](CO)NC(=O)[C@H](CO)NC(=O)[C@H](CCCNC(=N)N)NC(=O)[C@H](CCCNC(=N)N)NC(=O)[C@H](CC(C)C)NC(=O)[C@@H](N)CO)CSSC[C@@H](C(=O)N[C@@H](CC(N)=O)C(=O)N[C@@H](CO)C(=O)N[C@@H](Cc2ccccc2)C(=O)N[C@@H](CCCNC(=N)N)C(=O)N[C@@H](Cc2ccc(O)cc2)C(=O)O)NC(=O)CNC(=O)[C@H](CC(C)C)NC(=O)CNC(=O)[C@H](CO)NC(=O)[C@H](CCC(N)=O)NC(=O)[C@H](C)NC(=O)CNC1=O [ANP],side effect hypotension,[2],observed
same,inhibition of DNA synthesis,[3],77%
Urodilatin,decrease in number of renal carcinoma cells,"[1]; 1 μM, 24 hours",24%
same,decrease in number of renal carcinoma cells,[1]; [5],17%
same,decrease in number of renal carcinoma cells,[1]; [6],15%
same,decrease in number of renal carcinoma cells,[1]; [7],10%
same,decrease in number of renal carcinoma cells,"[1]; 10 μM, 24 hours",46%
same,decrease in number of renal carcinoma cells,[1]; [8],46%
same,decrease in number of renal carcinoma cells,[1]; [9],43%
same,decrease in number of renal carcinoma cells,[1]; [10],37%
same,decrease in number of renal carcinoma cells,"[1]; 100 μM, 24 hours",66%
same,number of renal carcinoma cells remaining per high powered field,"[1]; 100 μM, 24 hours",30±2 cells
same,decrease in number of renal carcinoma cells,[1]; [11],65%
same,decrease in number of renal carcinoma cells,[1]; [12],64%
same,decrease in number of renal carcinoma cells,[1]; [13],58%
same,cancer cells killed (maximum),"[1]; within 24 hours, concentration not given",up to 81%
same,binding curves compared with ANP,NPR-A receptor,superimposable with ANP
same,binding curves compared with ANP,NPR-A receptor; listed as urodilatin,nearly superimposable binding curves
same,binding curves compared with ANP,NPR-C receptor,superimposable with ANP
same,binding curves compared with ANP,NPR-C receptor; listed as urodilatin,nearly superimposable binding curves
same,inhibition of DNA synthesis,[3],65%
"vessel dilator: peptide hormone within the 126 amino acid ANP prohormone synthesized in the heart (EVVPPQVLSEPNEEAGAALSPLPEVPPWTGEVSPAQR; Vessel dilator; UniProt P01160 56-92, looked up)",decrease in number of renal carcinoma cells,"[1]; 1 μM, 24 hours",59%
same,decrease in number of renal carcinoma cells,[1]; [5],55%
same,decrease in number of renal carcinoma cells,[1]; [6],51%
same,decrease in number of renal carcinoma cells,[1]; [7],43%
same,decrease in number of renal carcinoma cells,"[1]; 10 μM, 24 hours",62%
same,decrease in number of renal carcinoma cells,[1]; [8],66%
same,decrease in number of renal carcinoma cells,[1]; [9],64%
same,decrease in number of renal carcinoma cells,[1]; [10],55%
same,decrease in number of renal carcinoma cells,"[1]; 100 μM, 24 hours",81%
same,number of renal carcinoma cells remaining per high powered field,"[1]; 100 μM, 24 hours",17±4 cells
same,decrease in number of renal carcinoma cells,[1]; [11],81%
same,decrease in number of renal carcinoma cells,[1]; [12],80%
same,decrease in number of renal carcinoma cells,[1]; [13],68%
same,side effect hypotension,[2],never
same,inhibition of DNA synthesis,[3],84%
